Source: patent US11866433B2, “Diarylthiohydantoin compound as androgen receptor antagonist” (CHIA TAI TIANQING PHARMACEUTICAL GROUP CO., LTD., priority 2017, dated 2024)

Biological target: T1, androgen receptor (AR) (Homo sapiens, UniProt P10275)
T1 sequence (P10275 1-920): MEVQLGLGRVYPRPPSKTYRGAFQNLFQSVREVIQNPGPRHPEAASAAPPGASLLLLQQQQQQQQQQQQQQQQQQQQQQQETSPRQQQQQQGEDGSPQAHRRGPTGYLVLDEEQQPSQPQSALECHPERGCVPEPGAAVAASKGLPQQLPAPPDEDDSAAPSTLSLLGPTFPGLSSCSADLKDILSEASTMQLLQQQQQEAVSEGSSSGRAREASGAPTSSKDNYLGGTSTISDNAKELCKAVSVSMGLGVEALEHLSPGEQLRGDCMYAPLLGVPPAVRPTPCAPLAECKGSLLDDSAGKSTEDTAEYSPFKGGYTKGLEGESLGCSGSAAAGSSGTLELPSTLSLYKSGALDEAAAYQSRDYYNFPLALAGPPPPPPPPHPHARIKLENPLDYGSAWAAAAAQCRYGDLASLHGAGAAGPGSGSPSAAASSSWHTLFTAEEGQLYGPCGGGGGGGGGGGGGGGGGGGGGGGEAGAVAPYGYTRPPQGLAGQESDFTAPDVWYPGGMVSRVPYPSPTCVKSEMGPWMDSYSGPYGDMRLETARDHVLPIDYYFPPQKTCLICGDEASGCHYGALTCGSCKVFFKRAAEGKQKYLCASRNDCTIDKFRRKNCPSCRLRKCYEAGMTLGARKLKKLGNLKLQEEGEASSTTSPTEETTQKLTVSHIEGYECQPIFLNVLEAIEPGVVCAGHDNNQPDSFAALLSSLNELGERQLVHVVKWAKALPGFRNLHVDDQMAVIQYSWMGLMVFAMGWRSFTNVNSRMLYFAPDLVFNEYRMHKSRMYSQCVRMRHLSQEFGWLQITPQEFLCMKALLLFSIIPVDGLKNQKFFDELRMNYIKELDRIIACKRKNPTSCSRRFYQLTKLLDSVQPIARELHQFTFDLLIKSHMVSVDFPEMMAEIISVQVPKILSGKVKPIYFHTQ
Assay: Antagonism of compounds on nuclear translocation of androgen receptor (PathHunter NHR cell lines)
Format: cell-based
Details: antagonist mode, agonist 6a-Fluorotestosterone 0.06 μM (EC80)
Description: Example 75 Test of Antagonism of Compounds on Nuclear Translocation of Androgen Receptor (AR)
1. PathHunter NHR cell lines were recovered and cultured for amplification.
2. The cells were inoculated onto a 384-well plate prior to testing, and incubated at 37° C. The serum for culture was filtered with charcoal-dextran to reduce the hormone level therein.
3. In the detection of the antagonistic function, a compound was added to the cells and incubated for 60 min. The working concentration of the test compound was diluted from 10 μM at a 3-fold concentration gradient, respectively including: […]. Then, an agonist 6a-Fluorotestosterone 0.06 μM (concentration: EC80, i.e., 80% agonistic compound concentration) was added, and the mixture was incubated at 37° C. or at room temperature for 3-16 h.
4. Signal detection: 12.5 μL or 15 μL (50%, v/v) PathHunter detection mixed solution (kit: DiscoverX product catalog number: 93-0001 series) was added, and incubated at room temperature for 1 h. The chemiluminescent signal was read with a PerkinElmer Envision™ instrument.
5. Data analysis: The compound activity was analyzed with CBIS data analysis software (ChemInnovation, CA). The calculation formula of the inhibition percent of the antagonist is as follows: IC50 inhibition ratio (%)=[…]×(1−(average RLU value of the test compound−average RLU value of the blank control group)/(average RLU value of EC80 control group−average RLU value of the blank control group)).

Row | SMILES | IC50
1 | CCc1nc(OCCO)c2cc(N3C(=S)N(c4ccc(C#N)c(C(F)(F)F)c4)C(=O)C3(C)C)ccc2n1 [Compound 27] | 2210 nM
2 | CCN1CCOc2cc(N3C(=O)N(c4ccc(C#N)c(C(F)(F)F)c4)C(=O)C3(C)C)ccc2C1=O [Compound 4] | 2190 nM
3 | CCc1nc2c(F)cc(N3C(=S)N(c4ccc(C#N)c(C(F)(F)F)c4)C(=O)C3(C)C)cn2c(=O)c1OCCO [Compound 41] | 2750 nM
4 | CCc1nc2ccc(N3C(=S)N(c4ccc(C#N)c(C(F)(F)F)c4)C(=O)C3(C)C)cn2c(=O)c1OCCOC [Compound 37] | 4470 nM
5 | CC1(C)C(=O)N(c2ccc(C#N)c(C(F)(F)F)c2)C(=S)N1c1ccc2nn(C3COCC3O)cc2c1 (centres unmarked) [Compound 8] | 4270 nM
6 | CCc1nc(OCC2COC2)c2cc(N3C(=S)N(c4ccc(C#N)c(C(F)(F)F)c4)C(=O)C3(C)C)cc(F)c2n1 [Compound 29] | 830 nM
7 | CNC(=O)c1ccc(-n2c(=S)n(-c3ccc(C#N)c(C(F)(F)F)c3)c3ncccc32)cc1F [Compound 2] | > 10000 nM
8 | CC1(C)C(=O)N(c2ccc(C#N)c(C(F)(F)F)c2)C(=S)N1c1ccc2c(cnn2C2COCC2O)c1 (centres unmarked) [Compound 7] | 4260 nM
9 | CCc1nc2c(F)cc(N3C(=S)N(c4ccc(C#N)c(C(F)(F)F)c4)C(=O)C3(C)C)cn2c(=O)c1OCCOC [Compound 40] | 2150 nM
10 | CNc1nc(OCCO)c2cc(N3C(=S)N(c4ccc(C#N)c(C(F)(F)F)c4)C(=O)C3(C)C)ccc2n1 [Compound 16] | 3910 nM
11 | CCc1nc2ccc(N3C(=S)N(c4ccc(C#N)c(C(F)(F)F)c4)C(=O)C3(C)C)cn2c(=O)c1OC [Compound 31] | 3800 nM
12 | CCc1nc2c(F)cc(N3C(=S)N(c4ccc(C#N)c(C(F)(F)F)c4)C(=O)C3(C)C)cn2c(=O)c1OCC(N)=O [Compound 43] | 3500 nM
13 | CC1(C)C(=O)N(c2cnc(C#N)c(C(F)(F)F)c2)C(=S)N1c1cc(F)c2nc(C3CC3)nc(OCCO)c2c1 [Compound 23] | 1150 nM
14 | CNC(=O)c1ccc(-n2c(=S)n(-c3ccc(C#N)c(C(F)(F)F)c3)c3nccc(C)c32)cc1F [Compound 3] | 1400 nM
15 | CCc1nc(OCCCS(C)(=O)=O)c2cc(N3C(=S)N(c4ccc(C#N)c(C(F)(F)F)c4)C(=O)C3(C)C)cc(F)c2n1 [Compound 22] | 2360 nM
16 | CNc1ncnc2cc(N3C(=S)N(c4ccc(C#N)c(C(F)(F)F)c4)C(=O)C3(C)C)ccc12 [Compound 1] | > 10000 nM
17 | COc1cc(=O)n2cc(N3C(=S)N(c4ccc(C#N)c(C(F)(F)F)c4)C(=O)C3(C)C)cc(F)c2n1 [Compound 68] | 1910 nM
18 | CCc1nc2ccc(N3C(=S)N(c4ccc(C#N)c(C(F)(F)F)c4)C(=O)C3(C)C)cn2c(=O)c1O [Compound 33] | 9580 nM
19 | CCc1nc(-c2c[nH]cn2)c2cc(N3C(=S)N(c4ccc(C#N)c(C(F)(F)F)c4)C(=O)C3(C)C)cc(F)c2n1 [Compound 63] | 1340 nM
20 | CCc1cc(=O)n2cc(N3C(=S)N(c4ccc(C#N)c(C(F)(F)F)c4)C(=O)C3(C)C)cc(C)c2n1 [Compound 60] | 1830 nM
21 | CCc1nc(OCC2(O)CC2)c2cc(N3C(=S)N(c4ccc(C#N)c(C(F)(F)F)c4)C(=O)C3(C)C)cc(F)c2n1 [Compound 36] | 5650 nM

System: not listed separately
Assay: Tissue distribution test of Compound 27 and Compound 10 (plasma and brain)
Format: in vivo
Details: intragastric 2 mg/kg, 2 h after administration, male CD-1 mice
Description: Taking male CD-1 mice as test animals, drug concentrations in plasma and brain after intragastric administration of Compound 27 and Compound 10 to the mice were determined by the LC/MS/MS method, respectively.
2.2 Test Animals: Six healthy adult male CD-1 mice were divided into 2 groups, with 3 mice in each group, according to the principle of similar body weight. The animals were purchased from Shanghai Super-BK Laboratory Animal Co., Ltd., with Animal Production License No.: SCXK (Shanghai) 2013-0016.
An appropriate amount of sample was weighed, and an appropriate amount of DMSO, PEG400 and water were added successively at a volume ratio of 10:40:50. After stirring and ultrasonic processing, the resulting mixture reached a clear solution state of 0.4 mg/mL.
Six male CD-1 mice were divided into 2 groups, fasted overnight, and intragastrically administered at an administration volume of 5 mL/kg in a dose of 2 mg/kg.
After Compound 27 and Compound 10 were intragastrically administered to the male CD-1 mice, 100 μL of blood was collected by cardiac puncture at 2 h, placed in a test tube containing 2 μl of EDTA-K2, and centrifuged at 3000 g for 15 min to separate 50 μL of plasma, which was stored at −60° C. Meanwhile, brain tissues were collected, washed, then homogenized with 5-fold 15 mM PBS/MeOH (v:v, 2:1), and stored at −60° C. The animals were allowed to eat 2 hours after administration.
After intragastric administration to the mice, the content of the test compound in plasma and brain was determined by the LC/MS/MS method. The linear range of the method was 2.00-6000 nmol/L; and the plasma samples were analyzed after the treatment with acetonitrile precipitated protein.

Row | SMILES | Concentration in Brain
22 | CCc1nc(OCCO)c2cc(N3C(=S)N(c4ccc(C#N)c(C(F)(F)F)c4)C(=O)C3(C)C)ccc2n1 [Compound 27] | 85.2 ± 21.9 nmol/kg

Same assay, conditions: mouse, brain / plasma, oral; intragastric 2 mg/kg, 2 h after administration, male CD-1 mice; read-out: Brain to Blood Ratio

Row | SMILES | Kp at 2 h
23 | CCc1nc(OCCO)c2cc(N3C(=S)N(c4ccc(C#N)c(C(F)(F)F)c4)C(=O)C3(C)C)ccc2n1 [Compound 27] | 0.00917 ± 0.0004

Same assay, conditions: mouse, plasma, oral; intragastric 2 mg/kg, 2 h after administration, male CD-1 mice

Row | SMILES | concentration at 2 h
24 | CCc1nc(OCCO)c2cc(N3C(=S)N(c4ccc(C#N)c(C(F)(F)F)c4)C(=O)C3(C)C)ccc2n1 [Compound 27] | 9.25 ± 2.11 µM

System: Human prostate cancer LNCaP-FGC cells
Assay: In vivo pharmacodynamic study on subcutaneous xenograft tumor model of human prostate cancer LNCaP-FGC cells
Design: species or system CB-17 SCID mice
Details: 50 mg/kg PO QD, after 21 days of administration, vs solvent control
Description: 2.1 Experimental Animals • Species: Mice • Strain: CB-17 SCID mice • Week age and body weight: 6-8 weeks old, 18-22 g body weight • Gender: male • Supplier: Beijing Vital River Laboratory Animal Technology Co., Ltd • Animal Certificate No.: 11400700184227 3. Experimental Method and Steps 3.1 Cell Culture
Human prostate cancer LNCaP-FGC cells (ATCC, Manassas, Virginia) were cultured in vitro monolayers under the culture conditions of RPM11640 medium supplemented with […] fetal bovine serum at 37° C. with 5% CO2. Routine digestion treatment with trypsin-EDTA was performed twice a week for passage. When the cell saturation was 80%-90%, the cells were collected, counted, and inoculated.
0.2 mL (10×10^6) of LNCaP-FGC cells (10×10^6+Matrigel, 1:1) was inoculated subcutaneously to the right back of each CB-17 SCID mouse. When the average tumor volume reached 100-150 mm^3, administration in groups was started.
The tumor diameters were measured with a vernier caliper twice a week. The calculation formula of the tumor volume is: V=0.5a×b^2, wherein a and b represent the long diameter and the short diameter of the tumor, respectively. The antitumor efficacy of the compounds were evaluated by TGI (%) or a relative tumor proliferation rate T/C (%). TGI(%)=[(1−(average tumor volume of a treatment group at the end of drug administration−average tumor volume of the treatment group at the beginning of drug administration))/(average tumor volume of the vehicle control group at the end of treatment−average tumor volume of the vehicle control group at the beginning of treatment)]×100%. The calculation formula of the relative tumor proliferation rate T/C (%) is as follows: T/C %=TRTV/CRTV×100% (TRTV: RTV of a treatment group; CRTV: RTV of a negative control group). The relative tumor volume (RTV) is calculated based on the tumor measurement results, and the calculation formula is RTV=Vt/V0, wherein V0 is the average tumor volume measured at the time of administration in groups (i.e., do), Vt is the average tumor volume at one measurement, and TRTV and CRTV are the data obtained on the same day.
The statistical analysis includes mean and standard error of mean (SEM) of the tumor volume at each time point for each group. […] The comparison between two groups was analyzed by T-test, and the comparison between three or more groups was analyzed by one-way ANOVA. If there was a significant difference in the F value, the Games-Howell method was used for testing. If there was no significant difference in the F value, the Dunnet (2-sided) method was used for analysis. All data analysis was performed by using SPSS 17.0. “p<0.05” was considered a significant difference.

Row | SMILES | TGI | relative tumor proliferation rate T/C
25 | CCc1nc(OCCO)c2cc(N3C(=S)N(c4ccc(C#N)c(C(F)(F)F)c4)C(=O)C3(C)C)ccc2n1 [Compound 27] | 51.0% | 53.1%
